# From the supplement of paper PMC3493320
# System: NCI-H295R
# Test: IC50 (antiproliferative, ATP content)
# Conditions: 48 h
# How it was run: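 Following overnight culture of adrenocortical carcinoma cells (1500 per well) in 1536-well plates with serum-free ITS-supplemented DMEM, library compounds were pin-transferred at 8 final concentrations from 0.6 nM to 46 µM. Incubation lasted 48 h at 37 °C, 5% CO2, and the CellTiter-Glo signal was read after 20 min at room temperature. Data were fitted with a four-parameter logistic model. Each IC50 came from that fit after normalisation to vehicle and positive-control wells, and compounds without a concentration response were reported as above the top dose.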
row,SMILES,IC50
1,OC[C@H]1OC(O)[C@H](O)[C@@H](O)[C@H]1O (stereo not given in full),> 46 µM
2,CS(=O)(=O)O.CS(=O)(=O)O.N=C(N)c1ccc(/C=C/c2ccc(C(=N)N)cc2O)cc1,> 46 µM
3,Cc1nc2ccccc2n1Cc1ccc(Cl)cc1,> 46 µM
4,C[N+](C)(C)CC[N+]1(C)Cc2c(Cl)c(Cl)c(Cl)c(Cl)c2C1.[Cl-].[Cl-],> 46 µM
5,CC(CC=O)CCCC(C)(C)O (stereo not given),> 46 µM
6,O=C(CCN1CCN(CCO)CC1)N1c2ccccc2Sc2ccc(C(F)(F)F)cc21,> 46 µM
7,OCC(O)CO,> 46 µM
8,FC(F)(F)C(Cl)Br (stereo not given),> 46 µM
9,Cc1cccc(C)c1NC1=NCCCS1,> 46 µM
10,CCCCCCCCCCCCCCCCCC(=O)O,> 46 µM
11,CN1[C@@H]2CC[C@H]1C[C@@H](OC(=O)C(CO)c1ccccc1)C2 (stereo not given in full),> 46 µM
12,Cc1cc(O)ccc1Cl,> 46 µM
13,CCS(=O)(=O)C(C)(C)S(=O)(=O)CC,> 46 µM
14,CCC(C)[C@@H](N)C(=O)O (stereo not given in full),> 46 µM
15,OC[C@H]1O[C@@H](O[C@H]2[C@H](O)[C@@H](O)[C@H](O)O[C@@H]2CO)[C@H](O)[C@@H](O)[C@@H]1O,> 46 µM
16,O=P(O)(O)CP(=O)(O)O,> 46 µM
17,CCN(CC)C(=S)[S-].[Na+],> 46 µM
18,CC/C=C\C/C=C\C/C=C\C/C=C\C/C=C\C/C=C/CCC(=O)O,> 46 µM
19,CNCCc1ccccn1.CS(=O)(=O)O,> 46 µM
20,Clc1ccccc1-c1nc(-c2ccncc2)no1,> 46 µM
21,Cc1cc(OI)c(C(C)C)cc1-c1cc(C(C)C)c(OI)cc1C,> 46 µM
22,CC(C)N(CCC(C(N)=O)(c1ccccc1)c1ccccn1)C(C)C (stereo not given),> 46 µM

row,SMILES,IC50
1,O=[C@](OCC2=C(F)C(F)=CC(F)=C2F)[C@H]1C(C)(C)[C@@H]1/C=C(Cl)/Cl,> 46 µM
2,O[C@]([C@@H]1CSCN1)=O,> 46 µM
3,C1COC(NC(C2CC2)C2CC2)=N1,> 46 µM
4,CCN(CC)CCOc1ccccc1OC,> 46 µM
5,CCC1(c2ccccc2)C(=O)NC(=O)N(C(=O)c2ccccc2)C1=O (stereo not given),> 46 µM
6,[H][C@]1(CC3)[C@]([H])4[C@]([C@@H]([C@@](C)=O)CC4)(C)CC[C@@]([H])1[C@]2(C)[C@]3([H])C[C@H](O)CC2,> 46 µM
7,CCOC(=O)[C@@H](N)CS.Cl,> 46 µM
8,O=C1C[C@@H]2OCC=C3CN4CC[C@]56c7ccccc7N1[C@H]5[C@H]2[C@H]3C[C@H]46,> 46 µM
9,COc1ccc(C[C@@H](C)NC[C@H](O)c2ccc(O)c(NC=O)c2)cc1.COc1ccc(C[C@@H](C)NC[C@H](O)c2ccc(O)c(NC=O)c2)cc1.O=C(O)/C=C/C(=O)O,> 46 µM
10,CCC1(c2ccccc2)C(=O)NC(=O)NC1=O,> 46 µM
11,CC[C@@H](C)[C@H](N)C(=O)O,> 46 µM
12,O=C1C[N+]([O-])=C(c2ccccc2)c2cc(Cl)ccc2N1,> 46 µM
13,COc1cc(N)c(Cl)cc1C(=O)NC1CN2CCC1CC2.Cl (stereo not given),> 46 µM
14,CCC1(c2ccc(N)cc2)CCC(=O)NC1=O (stereo not given),> 46 µM
15,O[C@H]1[C@H]2[C@H](O)CCCN2C[C@H]1O,> 46 µM
16,Cc1ccc(C(C)(C)c2ccc(C)cc2)cc1,> 46 µM
17,OC[C@H]1O[C@@](CO)(O[C@H]2O[C@H](CO)[C@@H](O)[C@H](O)[C@H]2O)[C@@H](O)[C@@H]1O,> 46 µM
18,O=C1NCN(c2ccccc2)C12CCN(CC1COc3ccccc3O1)CC2 (stereo not given),> 46 µM
19,CCCC(C)C1(CC)C(=O)N=C([S-])NC1=O.[Na+] (stereo not given),> 46 µM
20,CCC(C(=O)OCCOCCN(CC)CC)c1ccccc1.O=C(O)CC(O)(CC(=O)O)C(=O)O (stereo not given),> 46 µM
21,CC(C)NCC(O)COc1ccc(COCCOC(C)C)cc1.CC(C)NCC(O)COc1ccc(COCCOC(C)C)cc1.O=C(O)/C=C/C(=O)O (stereo not given),> 46 µM

# More lines, now with the values ahead:
row,IC50,SMILES
1,> 46 µM,COc1ccc(/C=N/NC(=O)c2ccncc2)cc1OC
2,> 46 µM,CC(=O)Nc1ccc(S(=O)(=O)Nc2ccc([N+](=O)[O-])cc2)cc1
3,> 46 µM,O=[C@](CO)[C@](CC2)(O)[C@](CC1)(C)[C@]2([H])[C@@](CC4)([H])[C@@]1([H])[C@](CC3)(C)C4=CC3=O
4,> 46 µM,CCC(=O)O[C@]1(C(=O)CCl)[C@@H](C)C[C@H]2[C@@H]3CCC4=CC(=O)C=C[C@]4(C)[C@@]3(F)[C@@H](O)C[C@@]21C
5,> 46 µM,O=C([O-])c1cc(N=Nc2ccc(O)c(C(=O)[O-])c2)ccc1O.[Na+].[Na+]
6,> 46 µM,O=C(O)CCC/C=C\C[C@@H]1[C@@H](/C=C/[C@@H](O)COc2cccc(C(F)(F)F)c2)[C@H](O)C[C@@H]1O
7,> 46 µM,Cl.Nc1ccn([C@@H]2O[C@H](CO)[C@@H](O)C2(F)F)c(=O)n1
8,> 46 µM,COc1ccc2[nH]cc(CCNC(C)=O)c2c1
9,> 46 µM,CC(=O)SC[C@H](Cc1ccccc1)C(=O)NCC(=O)OCc1ccccc1
10,> 46 µM,CNC[C@H](O)[C@@H](O)[C@@H](O)[C@H](O)CO.Cc1c(Nc2ncccc2C(=O)O)cccc1C(F)(F)F
11,> 46 µM,Cl.C/C(C)=N\Nc2c(cnc1c2cnn1CC)C(=O)OCC
12,> 46 µM,CC(C(=O)O)c1ccc(C(=O)c2cccs2)cc1 (stereo not given)
13,> 46 µM,Cc1cc(O)c(C(C)C)cc1Cl
14,> 46 µM,CN1CC(=O)N2[C@H](c3ccc4c(c3)OCO4)c3[nH]c4ccccc4c3C[C@@H]2C1=O
15,> 46 µM,O=C(O)Cc1ccc(CCNS(=O)(=O)c2ccc(Cl)cc2)cc1
16,> 46 µM,CCCCCCCCCCCCCCCC(=O)OC[C@@H](O)[C@H]1OC[C@H](O)[C@H]1O
17,> 46 µM,COc1cc2nc(N(C)CCCNC(=O)C3CCCO3)nc(N)c2cc1OC.Cl (stereo not given)
18,> 46 µM,COc1ccc2c(c1OC)C(=O)O[C@@H]2[C@H]1c2c(cc3c(c2OC)OCO3)CCN1C
19,> 46 µM,CCOc1ccc(C(=O)OCCN(CC)CC)cc1
20,> 46 µM,Nc1nc(=O)n([C@@H]2CS[C@H](CO)O2)cc1F
21,> 46 µM,COc1ccccc1OC(=O)Oc1ccccc1OC
22,> 46 µM,CNCCCC1c2ccccc2C=Cc2ccccc21.Cl
23,> 46 µM,CCc1ccc(S(=O)(=O)O)cc1
24,> 46 µM,O=C([O-])c1cc(=O)c2c(OCC(O)COc3cccc4oc(C(=O)[O-])cc(=O)c34)cccc2o1.[Na+].[Na+]
25,> 46 µM,O=C(C)O[C@@](CC3)([C@](C)=O)[C@]2(C)[C@]3([H])[C@]1([H])C=C(C)C([C@@](CC4)(C)[C@]([H])1CC2)=CC4=O
26,> 46 µM,CC(C)(C)NC(=O)[C@H]4CC[C@@H]3[C@]4(C)CC[C@H]1[C@H]3CC[C@H]2NC(=O)\C=C/[C@]12C

row,IC50,SMILES
1,> 46 µM,CC(C)Cc1ccc([C@@H](C)C(=O)NS(C)(=O)=O)cc1
2,> 46 µM,CN1C(=O)CC(c2ccccc2)C1=O (stereo not given)
3,> 46 µM,O=[N+]([O-])c1cccc(S(=O)(=O)NCCNS(=O)(=O)c2cccc([N+](=O)[O-])c2)c1
4,> 46 µM,O=C([O-])c1nc(O)nc(O)n1.[K+]
5,> 46 µM,CC(=O)Nc1ccc(O)cc1
6,> 46 µM,NC(=O)N1c2ccccc2C=Cc2ccccc21
7,> 46 µM,O=C(O)CCC(=O)c1ccc(-c2ccccc2)cc1
8,> 46 µM,NC1=NC=NC2=C1N=CN2[C@@H]3O[C@H](COP(OP(OC[C@H]4O[C@@H]([N@@+]5=CC=CC(C(N)=O)=C5)[C@H](O)[C@@H]4O)([O-])=O)(O)=O)[C@@H](O)[C@H]3O
9,> 46 µM,Cc1scc2c1N(C(=O)CN1CCN(C)CC1)c1ccccc1NC2=O
10,> 46 µM,O=C1N=C2SCCN2C(=O)C1Cc1ccc(Cl)cc1 (stereo not given)
11,> 46 µM,O[C@H]1[C@@H]([C@]2=CC(O)=C(O)C=C2)OC3=C(C(O)=CC(O)=C3)C1
12,> 46 µM,C#Cc1cccc(Nc2ncnc3cc(OCCOC)c(OCCOC)cc23)c1
13,> 46 µM,O=[C@@](OCC)[C@@H](N[C@@H](C)C(N2C(N(C)C[C@H]2[C@](O)=O)=O)=O)CCC1=CC=CC=C1.Cl
14,> 46 µM,CC[C@H]1OC(=O)[C@H](C)[C@@H](O[C@H]2C[C@@](C)(OC)[C@@H](O)[C@H](C)O2)[C@H](C)[C@@H](O[C@@H]2O[C@H](C)C[C@H](N(C)C)[C@H]2O)[C@](C)(O)C[C@@H](C)C(=NOCOCCOC)[C@H](C)[C@@H](O)[C@]1(C)O
15,> 46 µM,CCCCNC(=O)NS(=O)(=O)c1ccc(C)cc1
16,> 46 µM,CC1(C)S[C@@H]2[C@H](NC(=O)C(C(=O)[O-])c3ccsc3)C(=O)N2[C@H]1C(=O)[O-].[Na+].[Na+] (stereo not given in full)
17,> 46 µM,CN(C)[C@@H]1C(O)=C(C(N)=O)C(=O)[C@@]2(O)C(O)=C3C(=O)c4c(O)ccc(Cl)c4[C@@H](O)[C@H]3C[C@@H]12.Cl
18,> 46 µM,CO[C@H]1C[C@H](O[C@H]2[C@H](C)[C@@H](O[C@@H]3O[C@H](C)C[C@H](N(C)C)[C@H]3OC(C)=O)[C@@H](C)C[C@]3(CO3)C(=O)[C@H](C)[C@@H](OC(C)=O)[C@@H](C)[C@@H](C)OC(=O)[C@@H]2C)O[C@@H](C)[C@@H]1OC(C)=O
19,> 46 µM,CC1(C)CCC(C)(C)c2cc(NC(=O)c3ccc(C(=O)O)cc3)ccc21
20,> 46 µM,O=C1NN=C(C2=CC=C(C=C2)N/N=C(C#N)/C#N)[C@@H](C1)C
21,> 46 µM,Cl.N=C(N)NC(=O)Cc1c(Cl)cccc1Cl
22,> 46 µM,CC[C@H](C)C(=O)O[C@H]1C[C@H](O)C=C2C=C[C@H](C)[C@H](CC[C@@H](O)C[C@@H](O)CC(=O)[O-])[C@H]21.[Na+]
23,> 46 µM,COCC(=O)Nc1c(I)c(C(=O)NCC(O)CO)c(I)c(C(=O)N(C)CC(O)CO)c1I (stereo not given)
24,> 46 µM,CCN(CC)CCNC(=O)c1cc(Cl)c(N)cc1OC
25,> 46 µM,Cc1ncc([N+](=O)[O-])n1CC(O)CCl (stereo not given)
26,> 46 µM,N#Cc1c(N(CC(=O)[O-])CC(=O)[O-])sc(C(=O)[O-])c1CC(=O)[O-].O.O.O.O.O.O.O.[Sr+2].[Sr+2]
